Test results published in ChEMBL document CHEMBL1201862, “PubChem BioAssay data set” (2004).
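A five-concentration, 48-hour dose response in 96-well plates underlies each endpoint, interpolated linearly between surrounding concentrations. At the GI50, growth is halved.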 Calls of active or inactive are those of the source. No stated cut-off is given here; in the data, active = GI50 up to about 1.1 µM and inactive = higher.

What was measured:
Test in all cases: NCI-60 cell line screen, 48 h
[1] = system: KM12
[2] = system: HOP-62
[3] = system: COLO 205
[4] = system: SK-MEL-5
[5] = system: A498
[6] = system: NCI-H460
[7] = system: HOP-92
[8] = system: MOLT-4
[9] = system: IGROV-1
[10] = system: U-251
[11] = system: CAKI-1
[12] = system: M14
[13] = system: OVCAR-4
[14] = system: DMS-114
[15] = system: 786-0
[16] = system: SN12C
[17] = system: EKVX
[18] = system: PC-3
[19] = system: MCF7
[20] = system: Hs-578T

Measured: GI50

O=C(Nc1cccs1)c1c(O)[nH]c(=S)[nH]c1=O
inactive: [1] > 100 µM | [2] > 100 µM | [3] > 100 µM | [4] > 100 µM | [5] > 100 µM | [6] > 100 µM | [7] > 100 µM | [8] > 100 µM | [9] > 100 µM | [10] > 100 µM | [11] > 100 µM | [12] > 100 µM | [13] > 100 µM | [14] > 100 µM | [15] > 100 µM | [16] > 100 µM

O=[N+]([O-])c1cccc2nc3ccccc3c(NCCO)c12
active: [1] 0.00366 µM | [2] 0.000539 µM | [3] 0.00167 µM | [17] 0.00111 µM | [4] 0.00286 µM | [5] 0.00383 µM | [6] 0.000767 µM | [18] 0.00378 µM | [7] 0.0016 µM | [8] 0.00407 µM | [9] 0.00269 µM | [10] 0.00281 µM | [11] 0.00323 µM | [12] 0.000243 µM | [13] 0.000719 µM | [14] 0.00316 µM | [15] 0.00315 µM | [16] 0.00197 µM | [19] 0.0021 µM | [20] 0.00684 µM

O=C1NC(=S)NC(=O)C1=CC1CC1
inactive: [1] > 100 µM | [2] > 100 µM | [3] > 100 µM | [17] > 100 µM | [4] > 100 µM | [5] > 100 µM | [6] > 100 µM | [7] > 100 µM | [8] > 100 µM | [9] > 100 µM | [10] > 100 µM | [11] > 100 µM | [12] > 100 µM | [13] > 100 µM | [14] > 100 µM | [15] > 100 µM | [16] > 100 µM

N=C(N)SCc1cccc([N+](=O)[O-])c1
inactive: [1] 24.4 µM | [2] 26.7 µM | [3] 21.5 µM | [17] 42.3 µM | [4] 32 µM | [5] 25.1 µM | [6] 34.1 µM | [7] 20.9 µM | [8] 32.7 µM | [9] 57.7 µM | [10] 44.7 µM | [11] 24.4 µM | [13] 30.3 µM | [14] 23.6 µM | [16] 37 µM | [19] 28.4 µM

CC(=O)Oc1cc2c(cc1OC(C)=O)OCC(c1ccc(C)cc1)C2 (stereo unspecified)
inactive: [1] 21.6 µM | [2] 20.5 µM | [3] 20.5 µM | [17] 23.4 µM | [4] 6.12 µM | [5] 8.69 µM | [6] 15.1 µM | [7] 8.85 µM | [8] 7.19 µM | [9] 20.3 µM | [10] 9.91 µM | [11] 21.7 µM | [13] 13 µM | [14] 4.94 µM | [16] 18.1 µM | [19] 24.9 µM

Cc1ccccc1NC(=O)c1c(C)oc2c1C(=O)c1ccccc1C2=O
inactive: [1] 30.9 µM | [2] > 56.1 µM | [3] 53.3 µM | [17] > 72.6 µM | [4] 13.2 µM | [5] 63.5 µM | [6] 32.4 µM | [7] 20.3 µM | [8] 20.1 µM | [9] > 71.9 µM | [10] 7.89 µM | [11] > 80.7 µM | [12] 20.9 µM | [13] 2.09 µM | [14] 24.7 µM | [15] 27 µM | [16] > 53.7 µM

c1cc2c3c(c1)c1cc4c(cc1c[n+]3CC2)OCO4 [ANHYDROLYCORINIUM CHLORIDE]
inactive: [2] 3.83 µM | [3] 2.74 µM | [17] 3.4 µM | [4] 3.79 µM | [5] 2.37 µM | [6] 3.73 µM | [7] 25.3 µM | [8] 1.25 µM | [9] 4.02 µM | [11] 12.5 µM | [14] 2.45 µM | [16] 1.99 µM | [19] 6.25 µM
active: [1] 0.582 µM | [10] 0.811 µM | [13] 0.383 µM

O=C1[C@H]2ON(c3ccccc3)C(c3ccc([N+](=O)[O-])cc3)[C@H]2C(=O)N1c1ccc(Cc2ccc(N3C(=O)[C@@H]4ON(c5ccccc5)C(c5ccc([N+](=O)[O-])cc5)[C@@H]4C3=O)cc2)cc1 (stereo partly specified)
inactive: [1] > 100 µM | [2] > 100 µM | [3] 58.7 µM | [17] > 100 µM | [4] 40.1 µM | [5] > 100 µM | [6] > 100 µM | [7] 52.4 µM | [8] > 100 µM | [9] > 100 µM | [10] > 100 µM | [11] 26.1 µM | [12] 13.5 µM | [13] > 100 µM | [14] > 100 µM | [15] > 100 µM | [16] > 100 µM

Cc1ccccc1/N=N/C(C(=O)c1ccccc1)C(=O)c1ccccc1
inactive: [1] 29.7 µM | [2] 23.8 µM | [3] 33.7 µM | [17] 25.2 µM | [4] 16.6 µM | [5] 39 µM | [7] 17.9 µM | [8] 13.4 µM | [9] 44.2 µM | [10] 16 µM | [11] 34.1 µM | [12] 18.1 µM | [13] 18.7 µM | [14] 19.4 µM | [15] 25.4 µM | [16] 20 µM
